Data on 5 compounds can be found in patent EP1257261B1, “ANTIVIRAL PHARMACEUTICAL COMPOSITIONS CONTAINING IRON CHELATORS” (Faculteit Geneeskunde Universiteit Utrecht, priority 1999, dated 2001).

The subject of data set [1] is HIV-1Ba-L. In words: HIV-1 replication in PBL, p24 ELISA of culture supernatant. The data set is classed as cell-based. The source says: (§1) Peripheral Blood Mononuclear Cell (PBMC) fractions were isolated from heparinized blood from HIV-1-, HIV-2- and hepatitis B-seronegative donors (Bloodbank, Utrecht, The Netherlands) by Ficoll-Isopaque gradient separation. Cells were washed twice and were then either subjected to counter-current centrifugal elutriation, or monocytes in the PBMC fraction were allowed to adhere to fibronectin-coated flasks before the PBL fraction was harvested. Monocytes were of >95% purity by criteria of cell morphology on May-Grunwald-Giemsa-stained cytosmears and by non-specific esterase staining using (α-naphthylacetate (Sigma Chemical Co., St. Louis, MO) and PBL >85% purity by May-Grunwald-Giemsa-staining. Viability of both cell types was >95% at the point of experiment initiation as determined by trypan-blue exclusion. Isolated monocytes were cultured in suspension at a concentration of 2 x 10^6 cells/ml in teflon flasks minimizing adherence (Nalgene, Rochester, NY) and allowed to differentiate for 7 days. MDM medium consisted of Dulbecco's modified Eagle's medium supplemented with 10% heat-inactivated human AB serum, negative for anti-HIV antibodies (Bloodbank Utrecht, NL), 10 µg/ml gentamycin (Life Technologies Ltd, Paisley, Scotland), 5 µg/ml ciprofloxacin (Beyer, Leverkusen, Germany), 0.6 mg/ml L-glutamine (Sigma) and 3.4 g/L bicarbonate (Merck, Darmstadt, Germany). Isolated PBL was stimulated to proliferate for 3 days with 4 µg/ml phytohemagglutinin (PHA; Sigma) in RPMI-1640 (Life Technologies Ltd.) medium supplemented with 10% heat inactivated fetal calf serum (Life Technologies Ltd.) and 10 µg/ml gentamycin. After PHA stimulation the PBL were cultured in medium containing 10 U/ml human recombinant IL-2 (Boehringer, Mannheim, Germany). All incubations were carried out in flat-bottomed 96-well plates at 37 °C, 5% CO2 and 95% air.
(§2) Cells were infected for 2 hours with HIV-1Ba-L. Macrophages were infected with a multiplicity of infection (MOI) of 0.005 and lymphocytes with an MOI of 0.001. The cells were then washed twice to remove excess virus and subsequently incubated with either DF (Novartis Pharma, Arnhem, The Netherlands), L1 (from Duchefa Farma B.V., Haarlem, The Netherlands) or BLM (H. Lundbeck A/S, Copenhagen, Denmark) for a period of 5 days. Virus in culture supernatant was inactivated in a final concentration of 0.05% empigen (Calbiochem-Novabiochem Co., La Jolla, CA). The presence of HIV-1 in the inactivated supernatant was monitored by checking for the p24-core antigen by enzyme-linked immunosorbent assay (ELISA).
For the HIV-1 replication measurements cells were infected for 2 hours with HIV-1Ba-L at an MOI of 0.001; the cells were subsequently washed 2 times and incubated with different DF concentrations. After 5 days, supenatant was harvested for p24 ELISA. Virus replication was expressed as % p24 reduction after DF incubations, compared to p24 measured from control HIV-infected cells incubated in the absence of DF (set at 100% p24). Cytotoxicity was measured by the MTT test and is represented as % viable cells after 5 days DF incubations, compared to viable cells from control HIV-infected cells incubated in the absence of DF (set at 100% viable cells). PBL proliferation was measured by overnight ^3H-thymidine incorporation after DF was incubated for 4 days with cells; it is represented as counts per minute (cpm) after DF incubations, compared to cpm from control cells, incubated in the absence of DF. Results are the average of 3 experiments in duplicate (statistical analysis using repeated ANOVA and student Newman-Keuls test, *p<0.05). 100% p24 production represents 19 ng p24/ml
For the HIV-I replication measurements cells were infected for 2 hours with HIV-1Ba-L at an MOI of 0.001; the cells were subsequently washed 2 times and incubated with different L1 concentrations. After 5 days, supernatant was harvested for p24 ELISA. […]

In data set [2] the test system is HIV-1Ba-L. In words: Drug combination studies, p24 inhibition in HIV-infected PBL, median-effect / combination index (CalcuSyn). The data set is classed as cell-based. Particulars: 5 days; for pIC50: Human immunodeficiency virus 1, 120 h, read-out: IC50 (p24-antigen inhibition).
Protocol: Three separate experiments were performed substantially as described in the section HIV infection and p24 measurements. Multiply-diluted fixed-ratio combinations of the drugs, or single drugs were added to each incubation point. The IC50 (inhibitory concentration) of each drug was calculated using the computer software program CalcuSyn. The combined-drug effect was evaluated by the median-effect principle and the isobologram method. This method involves the plotting of the dose-effect curve for each drug alone and in combination. The slope of the median-effect plot and the x intercept of the plot were then used for the computerized calculation of a combination index (CI). The CI values were based on the classic isobologram equation and CI values of <1, 1 and >1 indicate synergism (greater than the expected additive effect), additive effects and antagonism (less than the expected additive effect). Fraction affected (fa) was calculated for every drug combination and for each drug alone after p24 measurements in infected PBL incubated for 5 days with the examined compounds (see HIV infection and p24 measurements).
CT < 1, = 1 and > 1 represent synergistic, additive and antagonistic effects, respectively. The subdivision within the synergistic area (CI >0.7, 0.3-0.7 and <0.3 implying moderate synergism, synergism, and strong synergism respectively) is according to Chou and Talalay. The parameters are obtained using the median effect equation of Chou and Talalay and the CalcuSync computer software programme as described in materials and methods.
Peripheral blood lymphocytes (PBL) were infected for 2 hours with HIV-1Ba-L at an MOI of 0.001. The cells were subsequently washed 2 times to remove an excess in virus and subsequently incubated for 5 days with only BLM, only ritonavir or various combinations of the two substances. Virus in the supernatant of the cell cultures was inactivated in a final concentration of 0.05% empigen and the presence of HIV-1 in the inactivated supernatant was measured by determining the p24 antigen with enzyme-linked immunosorbent assay (ELISA). […]
Data set [3] has as its system PBL. In words: Cytotoxicity in PBL, MTT assay. The data set is classed as cell-based, human. Particulars: 5 days incubation. Here is the method: (§3) Peripheral Blood Mononuclear Cell (PBMC) fractions were isolated from heparinized blood from HIV-1-, HIV-2- and hepatitis B-seronegative donors (Bloodbank, Utrecht, The Netherlands) by Ficoll-Isopaque gradient separation. Cells were washed twice and were then either subjected to counter-current centrifugal elutriation, or monocytes in the PBMC fraction were allowed to adhere to fibronectin-coated flasks before the PBL fraction was harvested. […] After PHA stimulation the PBL were cultured in medium containing 10 U/ml human recombinant IL-2 (Boehringer, Mannheim, Germany).
(§4) Possible cytotoxicity of DF, L1 or BLM was monitored by the MTT [3-(4,5 dimethylthiazol-2-yl)-2,5-diphenyltetrazolium bromide] (Sigma) assay.
(§5) Results are the average of 3 experiments in duplicate (statistical analysis using repeated ANOVA and student Newman-Keuls test, *p<0.05).
as §5, §5
(In general: Tetrazolium assays rely on reduction of a dye to a coloured formazan, in cell work by metabolically active cells.)

In data set [4] the test system is HIV-1Ba-L. In words: HIV-1 replication in MDM, p24 ELISA of culture supernatant. Type of data set: cell-based. The following applies: 5 days.
From the text: as §1, §2
(§6) For the HIV-1 replication measurements cells were infected for 2 hours with HIV-1Ba-L at an MOI of 0.001; the cells were subsequently washed 2 times and incubated with different compound concentrations. After 5 days supernatant was harvested for p24 ELISA; Virus replication was expressed as % p24 reduction after compound incubations, compared to p24 measured from control HIV-infected cells incubated in the absence of compounds (set at 100% p24). Cytotoxicity was measured by the MTT test and is represented as % viable cells after 5 days compound incubations, compared to viable cells from control HIV-infected cells incubated in the absence of compounds (set at 100% viable cells). Results are the average of 3 experiments in duplicate (statistical analysis using repeated ANOVA and student Newman-Keuls test, *p<0.05). 100% p24 production represents 1.2 ng p24/ml.

A further data set deals with MDM. In words: Cytotoxicity in MDM, MTT assay. The following applies: 5 days. Type of data set: cell-based, human. Here is the method: as §3, §4
as §6, with “*p<0.05).” for “*p<0.05). 100% p24 production represents 1.2 ng p24/ml.”

Data set [5] concerns PBL. In words: Lymphocyte proliferation, overnight 3H-thymidine incorporation. The data set is classed as cell-based, human. The following applies: concentrations studied, 4 days incubation then overnight 3H-TdR.
From the text: as §1, with “Isolated PBL was stimulated to proliferate for 3 days with 4 µg/ml phytohemagglutinin (PHA; Sigma) in RPMI-1640 (Life Technologies Ltd.) medium supplemented with 10% heat inactivated fetal calf serum (Life Technologies Ltd.) and 10 µg/ml gentamycin. After PHA stimulation the PBL were cultured in medium containing 10 U/ml human recombinant IL-2 (Boehringer, Mannheim, Germany). All incubations were carried out in flat-bottomed 96-well plates at 37 °C, 5% CO2 and 95% air.” left out

The mark [6] stands for this setting: single drug within the DF-ddI combination experiment.
Where [7] appears, read: single drug within the BLM-ritonavir combination experiment.
Setting [8] is: 300 ng BLM/ml, control 1.2 ng p24/ml.

Broadly, the pIC50 is the negative decadic logarithm of the IC50, by convention in mol/L.

pIC50: −log10 of the molar value. Where two headings read alike, the source gives them in different places.

In the case of `CC(=O)N(O)CCCCCNC(=O)CCC(=O)N(O)CCCCCNC(=O)CCC(=O)N(O)CCCCCN` [DF, deferoxamine], the “p24 level in culture supernatant” value in the data set with HIV-1Ba-L [1] (3 µM, 5 days, control 19 ng p24/ml) is 11 ng p24/ml; in the data set with HIV-1Ba-L [1] (30 µM, 5 days, n=3, control 19 ng p24/ml), 1.9 ng p24/ml; in the data set with HIV-1Ba-L [4] (concentrations around 100 µM, control 1.2 ng p24/ml) it was 0.6 ng p24/ml. Also, the inhibition at 3 µM in the data set with HIV-1Ba-L [1] (Human immunodeficiency virus 1, 120 h, 3 µM, 5 days incubation, n=3, p<0.05, control 19 ng p24/ml, read-out: reduction in viral replication (p24)) worked out at 40%. Besides, the inhibition at 30 µM in the data set with HIV-1Ba-L [1] (Human immunodeficiency virus 1, 120 h, 30 µM, 5 days, n=3, control 19 ng p24/ml, read-out: reduction of p24 levels) was greater than 90%. The negative logarithm of the IC50 (pIC50) in the data set with HIV-1Ba-L [2] (setting [6]) was 5.07. In addition, the “cytotoxicity (cell viability, MTT)” value with PBL [3] (100 µM) is listed as “cytotoxic”; in the data set on MDM (concentrations around 100 µM), “onset of cytotoxicity”. Besides, the inhibition at 100 µM in the data set on HIV-1Ba-L [4] (Human immunodeficiency virus 1, 120 h, concentrations around 100 µM, control 1.2 ng p24/ml, read-out: reduction of viral replication (p24)) is no more than 50%.

`Cc1c(O)c(=O)ccn1C` [L1, deferiprone]: the “HIV-1 replication (p24)” value in the data set with HIV-1Ba-L [1] (100 µM, 5 days) is “reduced to minimal levels”. Moreover, the p24 antigen production result in the data set with HIV-1Ba-L [1] (lower compound concentrations (below 100 µM), 5 days) is recorded as “subtle increase”. The “cytotoxicity (cell viability, MTT)” value with PBL [3] (100 µM) and with MDM (concentrations studied) was “not cytotoxic” throughout. Besides, the “cellular proliferation (3H-thymidine incorporation)” value in the data set on PBL [5] is reported as “decrease in proliferation”. Moreover, the “up-regulation of p24 antigen production” value in the data set with HIV-1Ba-L [4] (30 µM) is “up to two fold”.

Regarding `O=c1[nH]cnc2c1ncn2[C@H]1CC[C@@H](CO)O1` [ddI, dideoxyinosine], the negative-log IC50 (pIC50) in the data set on HIV-1Ba-L [2] (setting [6]) was 5.43.

For `CC(C)c1nc(CN(C)C(=O)N[C@H](C(=O)N[C@@H](Cc2ccccc2)C[C@H](O)[C@H](Cc2ccccc2)NC(=O)OCc2cncs2)C(C)C)cs1` [ritonavir], the negative-log IC50 (pIC50) in the data set with HIV-1Ba-L [2] (setting [7]) was 7.40.

Consider bleomycin [BLM], for which the “reduction of HIV-1 replication (p24)” value in the data set on HIV-1Ba-L [1] (3-300 ng BLM/ml, 5 days, n=3, control 19 ng p24/ml) is 20-50%. Besides, the “p24 level in culture supernatant” value in the data set on HIV-1Ba-L [1] (lower end of 3-300 ng BLM/ml range (20% reduction), n=3, control 19 ng p24/ml) was determined as 15 ng p24/ml; in the data set on HIV-1Ba-L [1] (upper end of 3-300 ng BLM/ml range (50% reduction), n=3, control 19 ng p24/ml), 9.5 ng p24/ml; in the data set with HIV-1Ba-L [4] (setting [8]), 0.6 ng p24/ml. Also, in the data set with HIV-1Ba-L [2] (setting [7]), the “IC50 (p24-antigen inhibition)” value was 1.9 mg/L. The entries for the “cytotoxicity (cell viability, MTT)” value with PBL [3] (concentrations studied) and in the data set on MDM (concentrations studied) were “not cytotoxic” and “not to affect cell viability”, respectively. For the same compound, the “cellular proliferation (3H-thymidine incorporation)” value in the data set on PBL [5] is on record as “remained intact”. Besides, the “reduction of p24 levels” value with HIV-1Ba-L [4] (setting [8]) is given as 50%.
